# Experimental data reported in US10087178B2, “Substituted spiropyrido[1,2-a]pyrazine derivative and medicinal use thereof as HIV integrase inhibitor” (priority 2012, dated 2018).
# Structures can show the parent of a compound that is named as a salt.
# System: HIV-1 NL4-3 strain
# Test: Evaluation of antiviral activity: acute infection system of MT-4 cell with HIV-1 NL4-3 strain
# Type: cell-based
# Conditions: Human immunodeficiency virus 1, NL43, MT4, 120 h, MT-4 cells infected with HIV-1 NL4-3 strain (MOI 0.05), cultured 5 days, Cell Titer-Glo; read-out: antiviral activity (EC50)
row,Structure (SMILES),EC50
1,"COC[C@H]1C[C@@]2(CN(C)C(=O)c3c(O)c(=O)c(C(=O)NCc4cccc(Cl)c4F)cn32)C1 [Example 27, N-(3-chloro-2-fluorobenzyl)-9′-hydroxy-trans-3-(methoxymethyl)-2′-methyl-1′,8′-dioxo-1′,2′,3′,8′-tetrahydrospiro[cyclobutane-1,4′-pyrido[1,2-a]pyrazine]-7′-carboxamide]",1.5 nM
2,"COC[C@H]1C[C@]2(CN(C)C(=O)c3c([O][Ca][O]c4c5n(cc(C(=O)NCc6cccc(Cl)c6F)c4=O)[C@]4(CN(C)C5=O)C[C@H](COC)C4)c(=O)c(C(=O)NCc4cccc(Cl)c4F)cn32)C1 [Example 30, Monocalcium bis[7′-(3-chloro-2-fluorobenzylcarbamoyl)-cis-3-(methoxymethyl)-2′-methyl-1′,8′-dioxo-1′,2′,3′,8′-tetrahydrospiro[cyclobutane-1,4′-pyrido[1,2-a]pyrazin]-9′-olate]]",1.1 nM
3,"COC[C@H]1C[C@]2(CN(C)C(=O)c3c(OC(C)=O)c(=O)c(C(=O)NCc4cccc(Cl)c4F)cn32)C1 [Example 37, 7′-(3-chloro-2-fluorobenzylcarbamoyl)-cis-3-(methoxymethyl)-2′-methyl-1′,8′-dioxo-1′,2′,3′,8′-tetrahydrospiro[cyclobutane-1,4′-pyrido[1,2-a]pyrazin]-9′-yl acetate]",0.7 nM
4,"COC[C@H]1C[C@]2(CN(C)C(=O)c3c(OC(=O)c4cccc(C(=O)O)c4)c(=O)c(C(=O)NCc4cccc(Cl)c4F)cn32)C1 [Example 40, Monosodium 3-{[7′-(3-chloro-2-fluorobenzylcarbamoyl)-cis-3-(methoxymethyl)-2‘-methyl-’,8′-dioxo-1′,2′,3′,8′-tetrahydrospiro[cyclobutane-1,4′-pyrido[1,2-a]pyrazin]-9′-yloxy]carbonyl}benzoate]",1 nM

# Same assay, conditions: Human immunodeficiency virus 1, NL43, MT4, 120 h, antiviral activity; MT-4 cells infected with HIV-1 NL4-3 (MOI 0.05), 5 days culture, Cell Titer-Glo luminescence; read-out: EC50
row,Structure (SMILES),EC50
1,"CC(C)N1C[C@]2(C[C@@H](OCc3ccccc3)C2)n2cc(C(=O)NCc3ccc(F)cc3F)c(=O)c(O)c2C1=O [Example S1, trans-3-(benzyloxy)-N-(2,4-difluorobenzyl)-9′-hydroxy-2′-isopropyl-1′,8-dioxo-1′,2′,3′,8′-tetrahydrospiro[cyclobutane-1,4′-pyrido[1,2-a]pyrazine]-7′-carboxamide hydrochloride]",7.7 nM
2,"CC(C)N1C[C@]2(C[C@H](OCc3ccccc3)C2)n2cc(C(=O)NCc3ccc(F)cc3F)c(=O)c(O)c2C1=O [Example S2, cis-3-(benzyloxy)-N-(2,4-difluorobenzyl)-9′-hydroxy-2′-isopropyl-1′,8′-dioxo-1′,2′,3′,8′-tetrahydrospiro[cyclobutane-1,4′-pyrido[1,2-a]pyrazine]-7′-carboxamide hydrochloride]",10 nM
3,"CO[C@H]1C[C@@]2(CN(C(C)C)C(=O)c3c(O)c(=O)c(C(=O)NCc4ccc(F)cc4F)cn32)C1 [Example S5, N-(2,4-difluorobenzyl)-9′-hydroxy-2′-isopropyl-trans-3-methoxy-1′,8′-dioxo-1′,2′,3′,8′-tetrahydrospiro[cyclobutane-1,4′-pyrido[1,2-a]pyrazine]-7′-carboxamide hydrochloride]",4.4 nM
4,"CO[C@H]1C[C@]2(CN(C(C)C)C(=O)c3c(O)c(=O)c(C(=O)NCc4ccc(F)cc4F)cn32)C1 [Example S6, N-(2,4-difluorobenzyl)-9′-hydroxy-2′-isopropyl-cis-3-methoxy-1′,8′-dioxo-1′,2′,3′,8′-tetrahydrospiro[cyclobutane-1,4′-pyrido[1,2-a]pyrazine]-7′-carboxamide hydrochloride]",3.7 nM
5,"CCO[C@H]1C[C@@]2(CN(C(C)C)C(=O)c3c(O)c(=O)c(C(=O)NCc4ccc(F)cc4F)cn32)C1 [Example S7, N-(2,4-difluorobenzyl)- trans-3-ethoxy-9′-hydroxy-2′-isopropyl-1′,8′-dioxo-1′,2′,3′,8′-tetrahydrospiro[cyclobutane-1,4′-pyrido[1,2-a]pyrazine]-7′-carboxamide hydrochloride]",3.7 nM
6,"COCCO[C@H]1C[C@@]2(CN(C(C)C)C(=O)c3c(O)c(=O)c(C(=O)NCc4ccc(F)cc4F)cn32)C1 [Example S8, N-(2,4-difluorobenzyl)-9′-hydroxy-2′-isopropyl-trans-3-(2-methoxyethoxy)-1′,8′-dioxo-1′,2′-3′,8′-tetrahydrospiro[cyclobutane-1,4′-pyrido[1,2-a]pyrazine]-7′-carboxamide hydrochloride]",5.3 nM
7,"CN1C[C@]2(C[C@@H](OCc3ccccc3)C2)n2cc(C(=O)NCc3ccc(F)cc3F)c(=O)c(O)c2C1=O [Example S9, trans-3-(benzyloxy)-N-(2,4-difluorobenzyl)-9′-hydroxy-2′-methyl-1′,8′-dioxo-1′,2′,3′,8′-tetrahydrospiro[cyclobutane-1,4′-pyrido[1,2-a]pyrazine]-7′-carboxamide hydrochloride]",5.2 nM
8,"CN1C[C@]2(C[C@H](OCc3ccccc3)C2)n2cc(C(=O)NCc3ccc(F)cc3F)c(=O)c(O)c2C1=O [Example S10, cis-3-(benzyloxy)-N-(2,4-difluorobenzyl)-9′-hydroxy-2′-methyl-1′,8′-dioxo-1′,2′,3′,8′-tetrahydrospiro[cyclobutane-1,4′-pyrido[1,2-a]pyrazine]-7′-carboxamide hydrochloride]",6.1 nM
9,"CN1C[C@]2(C[C@@H](O)C2)n2cc(C(=O)NCc3ccc(F)cc3F)c(=O)c(O)c2C1=O [Example S11, N-(2,4-difluorobenzyl)- trans-3,9′-dihydroxy-2′-methyl-1′,8′-dioxo-1′,2′,3′,8′-tetrahydrospiro[cyclobutane-1,4′-pyrido[1,2-a]pyrazine]-7′-carboxamide hydrobromide]",25 nM
10,"CN1C[C@]2(C[C@H](O)C2)n2cc(C(=O)NCc3ccc(F)cc3F)c(=O)c(O)c2C1=O [Example S12, N-(2,4-difluorobenzyl)-cis-3,9′-dihydroxy-2′-methyl-1′,8′-dioxo-1′,2′,3′,8′-tetrahydrospiro[cyclobutane-1,4′-pyrido[1,2-a]pyrazine]-7′-carboxamide hydrobromide]",23 nM
11,"CO[C@H]1C[C@@]2(CN(C)C(=O)c3c(O)c(=O)c(C(=O)NCc4ccc(F)cc4F)cn32)C1 [Example S13, N-(2,4-difluorobenzyl)-9′-hydroxy-trans-3-methoxy-2′-methyl-1′,8′-dioxo-1′,2′,3′,8′-tetrahydrospiro[1,2-a]pyrazine]-1,4′-pyrido[1,2-a]pyrazine]-7′-carboxamide hydrochloride]",4.5 nM
12,"CO[C@H]1C[C@]2(CN(C)C(=O)c3c(O)c(=O)c(C(=O)NCc4ccc(F)cc4F)cn32)C1 [Example S14, N-(2,4-difluorobenzyl)-9′-hydroxy-cis-3-methoxy-2′-methyl-1′,8′-dioxo-1′,2′,3′,8′-tetrahydrospiro[cyclobutane-1,4′-pyrido[1,2-a]pyrazine]-7′-carboxamide hydrochloride]",3.9 nM
13,"CCN1C[C@]2(C[C@@H](OCc3ccccc3)C2)n2cc(C(=O)NCc3ccc(F)cc3F)c(=O)c(O)c2C1=O [Example S15, trans-3-(benzyloxy)-N-(2,4-difluorobenzyl)-2′-ethyl-9′-hydroxy-1′,8′-dioxo-1′,2′,3′,8′-tetrahydrospiro[cyclobutane-1,4′-pyrido[1,2-a]pyrazine]-7′-carboxamide hydrochloride]",6.9 nM

# Same assay, conditions: Human immunodeficiency virus 1, NL43, MT4, 120 h; read-out: antiviral activity (EC50)
row,Structure (SMILES),EC50
1,"COC[C@H]1C[C@]2(CN(C)C(=O)c3c(O)c(=O)c(C(=O)NCc4cccc(Cl)c4F)cn32)C1 [Example 29, Monopotassium 7′-(3-chloro-2-fluorobenzylcarbamoyl)-cis-3-(methoxymethyl)-2′-methyl-1′,8′-dioxo-1′,2′,3′,8′-tetrahydrospiro[cyclobutane-1,4′-pyrido[1,2-a]pyrazin]-9′-olate]",2.5 nM
2,"COC[C@H]1C[C@]2(CN(C)C(=O)c3c(OC(=O)/C=C/C(=O)O)c(=O)c(C(=O)NCc4cccc(Cl)c4F)cn32)C1 [Example 39, (E)-4-[7′-(3-chloro-2-fluorobenzylcarbamoyl)-cis-3-(methoxymethyl)-2′-methyl-1′,8′-dioxo-1′,2′,3′,8′-tetrahydrospiro[cyclobutane-1,4′-pyrido[1,2-a]pyrazin]-9′-yloxy]-4-oxobut-2-enoic acid]",1.4 nM

# Same assay, conditions: MT-4 cells infected with HIV-1 NL4-3 strain (MOI 0.05), cultured 5 days, Cell Titer-Glo; hydrobromide; read-out: antiviral activity (EC50)
row,Structure (SMILES),EC50
1,"COC[C@H]1C[C@]2(CN(C)C(=O)c3c(O)c(=O)c(C(=O)NCc4cccc(Cl)c4F)cn32)C1 [Example 31, N-(3-chloro-2-fluorobenzyl)-9′-hydroxy-cis-3-(methoxymethyl)-2′-methyl-1′,8′-dioxo-1′,2′,3′,8′-tetrahydrospiro[cyclobutane-1,4′-pyrido[1,2-a]pyrazine]-7′-carboxamide hydrobromide]",1.9 nM

# Same assay, conditions: MT-4 cells infected with HIV-1 NL4-3 strain (MOI 0.05), cultured 5 days, Cell Titer-Glo; read-out: antiviral activity (EC50)
row,Structure (SMILES),EC50
1,"COC[C@H]1C[C@]2(CN(C)C(=O)c3c(O)c(=O)c(C(=O)NCc4cccc(Cl)c4F)cn32)C1 [Example 28, Monosodium 7′-(3-chloro-2-fluorobenzylcarbamoyl)-cis-3-(methoxymethyl)-2′-methyl-1′,8′-dioxo-1′,2′,3′,8′-tetrahydrospiro[cyclobutane-1,4′-pyrido[1,2-a]pyrazin]-9′-olate]",2.2 nM
2,"COC[C@H]1C[C@]2(CN(C)C(=O)c3c(O)c(=O)c(C(=O)NCc4cccc(Cl)c4F)cn32)C1 [Example 32, N-(3-chloro-2-fluorobenzyl)-9′-hydroxy-cis-3-(methoxymethyl)-2′-methyl-1′,8′-dioxo-1′,2′,3′,8′-tetrahydrospiro[cyclobutane-1,4′-pyrido[1,2-a]pyrazine]-7′-carboxamide monosulfate]",0.9 nM
3,"COC[C@H]1C[C@]2(CN(C)C(=O)c3c(O)c(=O)c(C(=O)NCc4cccc(Cl)c4F)cn32)C1 [Example 33, N-(3-chloro-2-fluorobenzyl)-9′-hydroxy-cis-3-(methoxymethyl)-2′-methyl-1′,8′-dioxo-1′,2′,3′,8′-tetrahydrospiro[cyclobutane-1,4′-pyrido[1,2-a]pyrazine]-7′-carboxamide 4-methylbenzenesulfonate]",0.9 nM
